What all share (type): cell-based
In assay [1] the test system is Botryotinia fuckeliana (Botrytis cinerea). In words: Botryotinia fuckeliana (Botrytis cinerea) / liquid culture (Gray mould). Particulars: 72 h, read-out: disease control.
In assay [2] the test system is Glomerella lagenarium (Colletotrichum lagenarium). The assay is described as follows: Glomerella lagenarium (Colletotrichum lagenarium) / liquid culture (Anthracnose). Particulars: Colletotrichum orbiculare, read-out: disease control.
For assay [3], the system named is Monographella nivalis (Microdochium nivale). The assay is described as follows: Monographella nivalis (Microdochium nivale) / liquid culture (Foot rot cereals). The note with it: 96 h, read-out: disease control.
For assay [4], the system named is Fusarium culmorum. In words: microbe, parasite or virus in culture. Particulars: 72 h, read-out: disease control.
Setting [5] is: 200 ppm, liquid culture, 24° C., inhibition of growth determined photometrically 3-4 days after application, vs untreated control.
The mark [6] stands for this setting: 200 ppm, liquid culture, 24° C., inhibition of growth measured photometrically 3-4 days after application, vs untreated control.
[7] abbreviates: 200 ppm, liquid culture, 24° C., inhibition of growth determined photometrically 4-5 days after application, vs untreated control.

Read-outs that look alike come from different tables or passages of the source.

On to `Cc1cccc2c1CC(C)(C)N=C2c1cnn2cccc2c1` [E 4], for which the inhibition of growth at 200 ppm in assay [1] (setting [5]), in assay [2] (setting [6]) and in assay [3] (setting [7]) was at least 80% throughout.
As for `CC1(C)Cc2c(Cl)cccc2C(c2cnn3cccc3c2)=N1` [E 6], the inhibition of growth at 200 ppm in assay [1] (setting [5]), in assay [4], in assay [2] (setting [6]) and in assay [3] (setting [7]) was at least 80% each time.
For `CC1(C)Cc2c(F)cccc2C(c2cnn3c(F)ccc3c2)=N1` [E 7, 5-fluoro-1-(7-fluoro-pyrrolo[1,2-b]pyridazin-3-yl)-3,3-dimethyl-3,4-dihydro-isoquinoline], the inhibition of growth at 200 ppm in assay [1] (setting [5]), in assay [4], in assay [2] (setting [6]) and in assay [3] (setting [7]) was at least 80% in each case.
As for `CC1(C)Cc2ccccc2C(c2cnn3c(F)ccc3c2)=N1` [E 8], the inhibition of growth at 200 ppm in assay [1] (setting [5]), in assay [2] (setting [6]) and in assay [3] (setting [7]) was at least 80% in each case.
In the case of `CC1(C)Cc2c(Br)cccc2C(c2cnn3c(F)ccc3c2)=N1` [E 9], the inhibition of growth at 200 ppm in assay [1] (setting [5]), in assay [4], in assay [2] (setting [6]) and in assay [3] (setting [7]) was at least 80% each time.
In the case of `CC1(C)Cc2ccccc2C(c2cnn3cccc3c2)=N1` [E 10, 3,3-dimethyl-1-pyrrolo[1,2-b]pyridazin-3-yl-4H-isoquinoline], the inhibition of growth at 200 ppm in assay [1] (setting [5]), in assay [2] (setting [6]) and in assay [3] (setting [7]) was at least 80% in each case.
As for `CC1(C)Cc2c(F)cccc2C(c2cnn3c(F)cc(F)c3c2)=N1` [E 11], the inhibition of growth at 200 ppm in assay [1] (setting [5]) and in assay [2] (setting [6]) was at least 80% each time.
As for `CC1(C)N=C(c2cnn3c(Cl)ccc3c2)c2cccc(F)c2C1(C)C` [E 13], the inhibition of growth at 200 ppm in assay [1], in assay [2] and in assay [3] was at least 80% each time.
In the case of `CC1(C)N=C(c2cnn3ccc(Cl)c3c2)c2cccc(F)c2C1(C)C` [E 16], the inhibition of growth at 200 ppm in assay [1] (setting [5]) and in assay [2] (setting [6]) was at least 80% in each case.
For the compound `CC1(C)Cc2ccccc2C(c2cnn3cccc3c2)N1` (centres unmarked) [E 20], the inhibition of growth at 200 ppm in assay [1] (setting [5]) was at least 80%.
Regarding `CC1(C)Cc2c(C#N)cccc2C(c2cnn3c(F)ccc3c2)=N1` [E 22], the inhibition of growth at 200 ppm in assay [1] (setting [5]), in assay [4], in assay [2] (setting [6]) and in assay [3] (setting [7]) was at least 80% each time.
Regarding `COc1cccc2c1CC(C)(C)N=C2c1cnn2c(F)ccc2c1` [E 23], the inhibition of growth at 200 ppm in assay [1] (setting [5]) and in assay [2] (setting [6]) was at least 80% throughout.
Turning to `CC1(C)N=C(c2cnn3c(F)cc(C#N)c3c2)c2cccc(F)c2C1(C)C` [E 25], the inhibition of growth at 200 ppm in assay [1] (setting [5]), in assay [2] (setting [6]) and in assay [3] (setting [7]) was at least 80% in each case.
Regarding `Cc1ccc2cc(C3=NC(C)(C)Cc4c(F)cccc43)cnn12` [E 26], the inhibition of growth at 200 ppm in assay [1] (setting [5]), in assay [4], in assay [2] (setting [6]) and in assay [3] (setting [7]) was at least 80% each time.
Consider `CC1(C)Cc2c(cccc2-c2ccccc2F)C(c2cnn3c(F)ccc3c2)=N1` [E 28], for which the inhibition of growth at 200 ppm in assay [1] (setting [5]) and in assay [2] (setting [6]) was at least 80% in each case.
Turning to `CC1(C)Cc2c(O)cccc2C(c2cnn3cccc3c2)=N1` [E 34], the inhibition of growth at 200 ppm in assay [1] (setting [5]) and in assay [2] (setting [6]) was at least 80% each time.
As to `CC1(C)N=C(c2cnn3c(F)cc(C(F)(F)F)c3c2)c2cccc(F)c2C1(C)C` [E 35], the inhibition of growth at 200 ppm in assay [1] (setting [5]) and in assay [2] (setting [6]) was at least 80% each time.
As to `CC1(C)N=C(c2cnn3c(C(F)(F)F)cc(C(F)(F)F)c3c2)c2cccc(F)c2C1(C)C` [E 36], in assay [1] (setting [5]), the inhibition of growth at 200 ppm was at least 80%.
On to `CC1(C)N=C(c2cnn3c(I)ccc3c2)c2cccc(F)c2C1(C)C` [E 37], for which the inhibition of growth at 200 ppm in assay [1] (setting [5]), in assay [2] (setting [6]) and in assay [3] (setting [7]) was at least 80% in each case.
On to `CC1(C)Cc2c(OC(F)F)cccc2C(c2cnn3cccc3c2)=N1` [E 39], for which the inhibition of growth at 200 ppm in assay [1] (setting [5]) is at least 80%.
Consider `C#Cc1cc(F)n2ncc(C3=NC(C)(C)C(C)(C)c4c(F)cccc43)cc12` [E 40], for which the inhibition of growth at 200 ppm in assay [1] (setting [5]) and in assay [2] (setting [6]) was at least 80% throughout.
In the case of `CC1(C)N=C(c2cnn3c(C(F)(F)F)ccc3c2)c2cccc(F)c2C1(C)C` [E 43], the inhibition of growth at 200 ppm in assay [1] (setting [5]), in assay [2] (setting [6]) and in assay [3] (setting [7]) was at least 80% in each case.
As to `CC1(C)N=C(c2cnn3c(Br)cc(Br)c3c2)c2cccc(F)c2C1(C)C` [E 44], in assay [1] (setting [5]), the inhibition of growth at 200 ppm was at least 80%.
Regarding `CC1(C)N=C(c2cnn3cccc3c2)c2cccc(F)c2C1(C)C` [E 45], the inhibition of growth at 200 ppm in assay [4] was at least 80%.
Consider `CO/N=C(\C)c1cccc2c1CC(C)(C)N=C2c1cnn2cccc2c1` [E 56], for which the inhibition of growth at 200 ppm in assay [1] (setting [5]) and in assay [2] (setting [6]) was at least 80% in each case.
Turning to `CO/N=C(/C)c1cccc2c1CC(C)(C)N=C2c1cnn2cccc2c1` [E 57], the inhibition of growth at 200 ppm in assay [1] (setting [5]) and in assay [2] (setting [6]) was at least 80% throughout.
As to `CC1(C)Cc2c(C#N)cccc2C(c2cnn3cccc3c2)=N1` [E 58], the inhibition of growth at 200 ppm in assay [1] (setting [5]), in assay [4] and in assay [2] (setting [6]) was at least 80% each time.
Turning to `CC1(C)Cc2c(cccc2C2CC2)C(c2cnn3cccc3c2)=N1` [E 59], the inhibition of growth at 200 ppm in assay [1] (setting [5]) is at least 80%.
Take `CC1(C)N=C(c2cnn3cccc3c2)c2ccccc2C1(C)C` [E 61]: the inhibition of growth at 200 ppm in assay [1] (setting [5]), in assay [4] and in assay [2] (setting [6]) was at least 80% in each case.
For `C#Cc1ccc2cc(C3=NC(C)(C)C(C)(C)c4c(F)cccc43)cnn12` [E 62], the inhibition of growth at 200 ppm in assay [1] (setting [5]), in assay [2] (setting [6]) and in assay [3] (setting [7]) was at least 80% throughout.
Regarding `CC1(C)Cc2ccccc2C(c2cnn3c(Br)ccc3c2)=N1` [E 65], the inhibition of growth at 200 ppm in assay [1] (setting [5]) and in assay [3] (setting [7]) was at least 80% in each case.
With `CC1(C)N=C(c2cnn3ccc(Br)c3c2)c2ccccc2C1=O` [E 67], the inhibition of growth at 200 ppm in assay [2] (setting [6]) and in assay [3] (setting [7]) was at least 80% throughout.
As to `CC1(C)N=C(c2cnn3cccc3c2)c2cccc(C#N)c2C1(C)C` [E 68], the inhibition of growth at 200 ppm in assay [1] (setting [5]) and in assay [2] (setting [6]) was at least 80% each time.
Take `CC1(C)N=C(c2cnn3c(Cl)cc(Cl)c3c2)c2cccc(F)c2C1(C)C` [E 69]: the inhibition of growth at 200 ppm in assay [1] (setting [5]), in assay [2] (setting [6]) and in assay [3] (setting [7]) was at least 80% throughout.
With `CC1(C)N=C(c2cnn3ccc(Br)c3c2)c2ccccc2C1(F)F` [E 70], the inhibition of growth at 200 ppm in assay [1] (setting [5]), in assay [2] (setting [6]) and in assay [3] (setting [7]) was at least 80% each time.
As for `Cc1nn2cccc2cc1C1=NC(C)(C)C(C)(C)c2cc(F)ccc21` [E 78], the inhibition of growth at 200 ppm in assay [1] (setting [5]), in assay [4] and in assay [2] (setting [6]) was at least 80% throughout.
For `Cc1c(C2=NC(C)(C)C(C)(C)c3cc(F)ccc32)cnn2cccc12` [E 79], the inhibition of growth at 200 ppm in assay [1] (setting [5]), in assay [4] and in assay [2] (setting [6]) was at least 80% throughout.
On to `Cc1c(C2=NC(C)(C)C(C)(C)c3c2ccc(F)c3F)cnn2cccc12` [E 81], for which the inhibition of growth at 200 ppm in assay [1] (setting [5]), in assay [4] and in assay [2] (setting [6]) was at least 80% throughout.
Consider `Cc1c(C2=NC(C)(C)C(C)(C)c3c(F)cccc32)cnn2c(Br)ccc12` [E 82], for which the inhibition of growth at 200 ppm in assay [1] (setting [5]), in assay [2] (setting [6]) and in assay [3] (setting [7]) was at least 80% in each case.
For `Cc1c(C2=NC(C)(C)C(C)(C)c3c(F)cccc32)cnn2c(C#N)ccc12` [E 83], the inhibition of growth at 200 ppm in assay [1] (setting [5]) and in assay [2] (setting [6]) was at least 80% each time.
On to `CC1(C)N=C(c2cnn3ccnc3c2)c2cccc(F)c2C1(C)C` [E 85], for which the inhibition of growth at 200 ppm in assay [1] (setting [5]), in assay [2] (setting [6]) and in assay [3] (setting [7]) was at least 80% each time.
For the compound `CC1(C)Cc2c(F)cccc2C(c2cnn3ccnc3c2)=N1` [E 86], the inhibition of growth at 200 ppm in assay [1] (setting [5]) is at least 80%.
Still for that read-out and setting: the same measure for `CC1(C)N=C(c2cnn3c(C#N)cnc3c2)c2cccc(F)c2C1(F)F` [E 88]: at least 80%.
As for `CC1(C)N=C(c2cnn3ccnc3c2)c2cccc(F)c2C1(F)F` [E 89], the inhibition of growth at 200 ppm in assay [1] (setting [5]) and in assay [2] (setting [6]) was at least 80% each time.
Regarding `CC1(C)N=C(c2cnn3c(Br)cnc3c2)c2cccc(F)c2C1(F)F` [E 91], the inhibition of growth at 200 ppm in assay [1] (setting [5]) was at least 80%.
On to `Cc1nn2cccc2cc1C1=NC(C)(C)C(C)(C)c2c(F)cccc21` [E 92], for which the inhibition of growth at 200 ppm in assay [1] (setting [5]) and in assay [2] (setting [6]) was at least 80% in each case.
`Cc1c(C2=NC(C)(C)C(C)(C)c3c(F)cccc32)cnn2cccc12` [E 93]: the inhibition of growth at 200 ppm in assay [1] (setting [5]) and in assay [2] (setting [6]) was at least 80% in each case.
As to `CC1(C)N=C(c2cnn3cccc3c2)c2ccc(Cl)c(F)c2C1(C)C` [E 94], the inhibition of growth at 200 ppm in assay [1] (setting [5]) and in assay [2] (setting [6]) was at least 80% each time.
With `Cc1c(C2=NC(C)(C)C(C)(C)c3c(F)cccc32)cnn2c(F)ccc12` [E 95], the inhibition of growth at 200 ppm in assay [1] (setting [5]) and in assay [2] (setting [6]) was at least 80% each time.

The values are drawn from patent publication US9586969B2, “Microbiocidal heterobicyclic derivatives” (Syngenta Participations AG, priority 2014, dated 2017).
